From ChEMBL document CHEMBL3507680, “University of Dundee, Gates Library screen for HepG2 cell viability”

Experiment: Human HepG2 cell viability assay in 384 well format
Type: toxicity, cell-based
Parameters: dose 125 nL, time 70.5 hour; concentration not given beside the values
Details: HepG2 cells, read-out: Inhibition

For Cn1cncc1CN1CCOC(Cc2ccccc2)C1 (stereo unspecified), the cytotoxicity at 70.5 h was -8.78%.
With CC(=O)N1CCC(c2cncc(N3CCC(O)C3)n2)CC1 (stereo unspecified) the cytotoxicity at 70.5 h was -2.45%.
Cc1nn(CC(C)C)cc1S(=O)(=O)N(C)Cc1nonc1C showed a cytotoxicity at 70.5 h of 0.131%.
With CCCn1cc(S(=O)(=O)N(C)Cc2nonc2C)c(C)n1 the cytotoxicity at 70.5 h was -3.71%.
For CN(C)C(c1ccccn1)[C@H]1CC[C@H](CNC(=O)C2CC2)CC1 (stereo partly specified), the cytotoxicity at 70.5 h was 1.46%.
Molecule COCCC(=O)NC[C@H]1CC[C@H](C(c2ccccn2)N(C)C)CC1 (stereo partly specified) has a cytotoxicity at 70.5 h of -2.06%.
CC(C)c1[nH]c2ncccc2c1CN1CCC(O)CC1 gave a cytotoxicity at 70.5 h of -3.13%.
In the case of CCC1c2ccsc2CCN1Cc1cc2c(cc1OC)OCCO2 (stereo unspecified), the cytotoxicity at 70.5 h is reported as 1.24%.
CCN(CC)CCCNCc1cc2cc(C)cc(C)c2[nH]c1=O showed a cytotoxicity at 70.5 h of 3.4%.
Work on CN(C)C(=O)Cn1c(C2CC2)c(CN2CCSCC2)c2cccnc21 yielded a cytotoxicity at 70.5 h of 1.03%.
For Cc1ccn(CCNC(=O)C2(C)CC(c3ccccc3)=NO2)n1 (stereo unspecified), the cytotoxicity at 70.5 h was -1.48%.
With CCc1nc(N2CCOCC2)ncc1C(=O)NC(c1cccs1)C(C)C (stereo unspecified) the cytotoxicity at 70.5 h was -0.678%.
For Cc1nccn1CCNC(=O)C1(C)CC(c2ccccc2)=NO1 (stereo unspecified), the cytotoxicity at 70.5 h was -3.18%.
Work on Cc1cccc(C2(O)CCN(Cc3ccccc3N3CCCC3)CC2)c1 yielded a cytotoxicity at 70.5 h of 16.9%.
Cc1cc(NCCNS(=O)(=O)c2cn(C)nc2C)c2ccccc2n1 showed a cytotoxicity at 70.5 h of 13.5%.
For Oc1cc(-c2ccccn2)nc(C2CCN(Cc3ccncc3)CC2)n1, the cytotoxicity at 70.5 h was 16.5%.
In the case of CC(=O)N1C[C@H]2CCCN(S(=O)(=O)c3ccc(Cl)s3)[C@H]2C1, the cytotoxicity at 70.5 h is reported as 44.3%.
With CC(C)c1[nH]c2ncccc2c1CN1CCN(S(=O)(=O)N(C)C)CC1 the cytotoxicity at 70.5 h was -7.69%.
In the case of COCCCNS(=O)(=O)c1ccc2c(c1)NC(=O)C(C)O2 (stereo unspecified), the cytotoxicity at 70.5 h is reported as 1.94%.
With CCN(CC)CCCNCc1cc2cccc(C)c2[nH]c1=O the cytotoxicity at 70.5 h was -4.69%.
For CC(C)c1ccc(CN[C@@H]2COC[C@H]2c2ccc(F)cc2)cc1, the cytotoxicity at 70.5 h was -5.3%.
With CNc1nccnc1C1CN(C(=O)c2cc[nH]n2)CCO1 (stereo unspecified) the cytotoxicity at 70.5 h was -4.96%.
For Cn1nc(C2CNCCO2)cc1CCOc1cccc(C(F)(F)F)c1 (stereo unspecified), the cytotoxicity at 70.5 h was 7.31%.
CCCc1cc(C(=O)N[C@@H]2CC[C@@H](N3CCOCC3)[C@@H]2O)no1 gave a cytotoxicity at 70.5 h of -5.49%.
With CCc1cc(C(=O)N[C@@H]2CC[C@@H](N3CCOCC3)[C@@H]2O)no1 the cytotoxicity at 70.5 h was -4.39%.
Cc1n[nH]c(C)c1CCC(=O)NCC1(O)CCN(c2ccccn2)C1 (stereo unspecified) showed a cytotoxicity at 70.5 h of -1.98%.
Molecule Cn1nc(C2CNCCO2)cc1CCOc1ccc(C(F)(F)F)cc1 (stereo unspecified) has a cytotoxicity at 70.5 h of -1.52%.
With Cc1cnc(CC2COCCN(C(=O)CN3CCCCC3)C2)cn1 (stereo unspecified) the cytotoxicity at 70.5 h was -2.32%.
Cn1ccnc1CN1CCOC(Cc2ccccc2)C1 (stereo unspecified) gave a cytotoxicity at 70.5 h of -3.39%.
In the case of CC(=O)N1CCC(c2cncc(N3CCOCC3)n2)CC1, the cytotoxicity at 70.5 h is reported as -8.68%.
With c1cncc(CN2CC(Cc3nccc4cc[nH]c34)C2)c1 the cytotoxicity at 70.5 h was -3.48%.
CC(=O)N1CCC(c2cncc(Cl)n2)CC1 gave a cytotoxicity at 70.5 h of 2.82%.
Work on Cc1ncncc1C(=O)N1CCOC(C(=O)NC2CCCC2)C1 (stereo unspecified) yielded a cytotoxicity at 70.5 h of -1.76%.
Work on Oc1cc(-c2ccsc2)nc(C2CCN(Cc3cccnc3)CC2)n1 yielded a cytotoxicity at 70.5 h of -5.93%.
Work on Cc1cc(C2CCN(S(=O)(=O)N(C)C)CC2)ccn1 yielded a cytotoxicity at 70.5 h of 12.7%.
Work on c1cncc(CNc2cncc(C3CCCN3)n2)c1 (stereo unspecified) yielded a cytotoxicity at 70.5 h of -8.46%.
Work on CC1CCCN(Cc2c(C3CC3)n(CC(=O)N(C)C)c3ncccc23)C1 (stereo unspecified) yielded a cytotoxicity at 70.5 h of 27.3%.
For Cc1cnc(CCNc2cccc(CC3CCCNC3)n2)s1 (stereo unspecified), the cytotoxicity at 70.5 h was 0.312%.
For Cc1cc(Oc2ccccc2F)nc(C2CCCCN2)n1 (stereo unspecified), the cytotoxicity at 70.5 h was -6.21%.
CC(=O)N1CCN(c2cc(C3CCNCC3)ccn2)CC1 showed a cytotoxicity at 70.5 h of -1.18%.
Cc1nc(C2CCCNC2)nc2c1CCCN2Cc1ccccn1 (stereo unspecified) showed a cytotoxicity at 70.5 h of -3.47%.
Molecule CCCSc1ncc(CN(C)CCN2CCCCC2)cn1 has a cytotoxicity at 70.5 h of -2.41%.
Work on Cn1cncc1CN1CCC(O)(Cn2nc(-c3cccs3)oc2=O)CC1 yielded a cytotoxicity at 70.5 h of -2.36%.
Work on Cc1ccc(CN[C@@H]2COC[C@H]2c2ccc(F)cc2)cc1C yielded a cytotoxicity at 70.5 h of 3.52%.
For CCOc1ccc(CN[C@@H]2COC[C@H]2c2ccc(F)cc2)cc1, the cytotoxicity at 70.5 h was 29.1%.
Molecule OCCN(Cc1ccncc1)CC1(c2ccc(Cl)cc2)CCCC1 has a cytotoxicity at 70.5 h of 1.74%.
